The test system of assay [1] is plaques in thoracic aorta. Particulars: 5-ALA 80 mg/kg i.p., then i.v. substrate (carbamide peroxide), 5Gy once, 7th day after therapy.
Procedure: (1) Male New Zealand rabbits, bodyweight 3-4 kg, were fed with diet containing 1% cholesterol and pork fat, raised for 11 weeks, until atherosclerotic plaques occurred at vessels of eye ground at both sides and artery.
(2) The rabbits were anesthetized with ketamine and thiopental sodium.
(3) Target regions of plaques at artery to be treated were determined by total body CT plain scanning and CTA enhancing.
(4) Target regions of plaques at artery to be treated were sketched by a therapy planning system, to formulate a therapeutical plan suitable for RCDT, using GTV dose of up to 5.0Gy, irradiated once. Normal feeding was restored during the procedure.
(5) It was 2 h before the irradiation that 5-ALA (80 mg/kg in saline 5 ml) was intraperitoneally injected, carbamide peroxide (injection containing H2O2, 80 mg/kg) in 5 ml of saline was slowly injected via ear vein immediately before the irradiation, and the therapeutical plan was carried out immediately after the injection of carbamide peroxide.
(6) It was 5-7 days after irradiation the CTA was reexamined, and the situations of elimination of vascular plaques were recorded.
The plaques are used as target regions, positioned, and radiotherapy plan is formulated. It is 1.5 h after intraperitoneal injection of 5-ALA (80 mg/kg of body weight) that a substrate is intravenously dripped, the vascular plaques are irradiated with 5Gy once. […]
The nature of assay [2]: Suppression of the decomposition of H2O2 catalysed by haematoporphyrin and .OH, using .OH scavengers. The following applies: 1.5% H2O2, 20% DMSO, 15% ethanol, 5% mannitol.
Procedure: (4) 15 uM Haematoporphyrin derivative (HPD) was added, or 15 uM acidified porphyrin (Protoporphyrin IX, PpIX) was added.
(5) The vacuum bottles were irradiated with 10 MeV X-ray for about 1 min, dose of 5Gy, to start the decomposition reaction of H2O2. The reaction was terminated by stopping irradiation.
Assay [3] can be described thus: Decomposition of H2O2 catalysed by photofrin alone under weak alkali, 1O2 measured by DMA fluorescence. Particulars: 15 uM, H2O2 lower than or equal to 0.15%, 25° C., 8 h, no activation. As for the experimental part: (1) 10 ml vacuum bottles were used, and the vacuum bottles were totally sealed with Kodak photographic film light protecting paper.
(2) H2O2 solutions (in DMF: H2O=1:5) with different concentrations were added to the sealed vacuum bottles.
(3) 5 uM 9,10-dimethylanthracene (DMA) was added. DMA was a kind of ^1O2 specific indicator (probe), DMA had intensive fluorescence property, after binding to ^1O2, endorperoxide without fluorescence property was formed, so that the amount of the generated ^1O2 is in inverse proportion with the content of DMA.
(4) 15 uM Haematoporphyrin derivative was added, and reacted at 25° C. for 8 h.

As for `NCC(=O)CCC(=O)O` [5-ALA], the “plaques in thoracic aorta by CTA visualization and MR” value in assay [1] was “completely disappeared”.

Take `C[S+](C)[O-]` [DMSO]: in assay [2], the “inhibition of 1O2 yield” value is 75.1%. On to `CCO` [ethanol], for which the “inhibition of 1O2 yield” value in assay [2] is reported as 43.0%.

For the compound `OC[C@@H](O)[C@@H](O)[C@H](O)[C@H](O)CO` [mannitol], in assay [2], the “inhibition of 1O2 yield” value is 17.7%. For the compound Haematoporphyrin derivative, in assay [3], the “catalysis of the decomposition reaction of H2O2 to generate 1O2” value is given as “cannot be catalyzed”.

Values taken from patent publication US20150141478A1, “SERIES OF DRUGS USING PHOTOFRIN TO CATALYZE DECOMPOSITION OF HYDROGEN PEROXIDE” (Wuxi Zhaozhen Radiation Technology Co., Ltd., priority 2012, published 2015).
